Test results: PMC9481151, “Discovery of new symmetrical and asymmetrical nitrile-containing 1,4-dihydropyridine derivatives as dual kinases and P-glycoprotein inhibitors: synthesis, in vitro assays, and in silico studies” (Journal of Enzyme Inhibition and Medicinal Chemistry, 2022)
Converted amounts (≈) assume the structure as drawn. “And” between values parts separate entries of the source, which are not always exact repeats. Equal entries are not always repeated.

What was measured:
[1] = test system: NCI-H226; assay: NCI single dose (10 µM) SRB screen; assay type: cell-based, human; settings: non-small cell lung cancer, 48 h
[2] = test system: drug-resistant HCT-116/ADR cells; assay: Potentiation of DOX cytotoxicity (reversal DOX effect, P-gp modulation); assay type: cell-based, human; settings: IC50 (DOX) without modulator / IC50 (DOX) with modulator
[3] = test system: RXF 393; assay: NCI single dose (10 µM) SRB screen; assay type: cell-based, human; settings: renal cancer, 48 h
[4] = molecular target: EGFR (Homo sapiens, UniProt P00533); assay: EGFR kinase inhibitory activity; assay type: biochemical; settings: for EGFR Potency: (IC50 lapatinib/IC50 Compound)*100; for IC50: read-out: EGFR IC50 ± SD
EGFR, sequence (P00533 25-1210): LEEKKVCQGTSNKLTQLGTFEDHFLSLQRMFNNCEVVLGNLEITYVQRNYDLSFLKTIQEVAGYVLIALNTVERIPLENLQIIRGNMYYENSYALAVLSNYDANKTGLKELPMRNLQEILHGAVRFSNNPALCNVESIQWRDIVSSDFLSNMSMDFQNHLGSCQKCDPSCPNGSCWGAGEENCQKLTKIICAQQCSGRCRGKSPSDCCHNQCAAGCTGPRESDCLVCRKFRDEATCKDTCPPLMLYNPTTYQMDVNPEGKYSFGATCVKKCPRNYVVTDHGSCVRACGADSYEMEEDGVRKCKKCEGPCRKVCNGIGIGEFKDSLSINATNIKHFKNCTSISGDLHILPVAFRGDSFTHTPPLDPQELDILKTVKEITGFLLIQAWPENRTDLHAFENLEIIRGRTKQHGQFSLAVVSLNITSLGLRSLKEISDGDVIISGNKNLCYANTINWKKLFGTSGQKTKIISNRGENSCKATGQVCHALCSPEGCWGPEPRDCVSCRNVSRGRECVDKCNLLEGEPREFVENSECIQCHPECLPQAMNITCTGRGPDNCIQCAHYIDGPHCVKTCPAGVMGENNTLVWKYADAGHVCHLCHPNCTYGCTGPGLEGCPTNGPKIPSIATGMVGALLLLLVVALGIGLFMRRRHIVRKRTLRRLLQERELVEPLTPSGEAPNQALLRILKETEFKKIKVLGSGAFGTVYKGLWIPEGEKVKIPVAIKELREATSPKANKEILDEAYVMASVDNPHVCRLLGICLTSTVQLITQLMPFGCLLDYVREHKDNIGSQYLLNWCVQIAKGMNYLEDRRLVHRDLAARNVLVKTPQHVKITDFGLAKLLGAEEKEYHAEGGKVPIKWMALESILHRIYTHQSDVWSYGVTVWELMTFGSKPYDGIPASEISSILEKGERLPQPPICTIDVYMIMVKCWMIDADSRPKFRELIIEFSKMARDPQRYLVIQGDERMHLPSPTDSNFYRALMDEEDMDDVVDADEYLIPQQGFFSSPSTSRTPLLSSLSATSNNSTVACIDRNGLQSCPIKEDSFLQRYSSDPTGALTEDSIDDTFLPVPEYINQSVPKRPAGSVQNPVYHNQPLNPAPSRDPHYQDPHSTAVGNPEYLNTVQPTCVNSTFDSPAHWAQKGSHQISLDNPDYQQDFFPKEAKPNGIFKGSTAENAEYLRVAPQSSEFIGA

[5] = molecular target: BTK (Homo sapiens, UniProt Q06187); assay: BTK inhibitory activity; assay type: biochemical; settings: for BTK Potency: (IC50 lapatinib/IC50 Compound)*100; for IC50: read-out: BTK IC50 ± SD
BTK, sequence (Q06187 whole entry, the tested form may be a part): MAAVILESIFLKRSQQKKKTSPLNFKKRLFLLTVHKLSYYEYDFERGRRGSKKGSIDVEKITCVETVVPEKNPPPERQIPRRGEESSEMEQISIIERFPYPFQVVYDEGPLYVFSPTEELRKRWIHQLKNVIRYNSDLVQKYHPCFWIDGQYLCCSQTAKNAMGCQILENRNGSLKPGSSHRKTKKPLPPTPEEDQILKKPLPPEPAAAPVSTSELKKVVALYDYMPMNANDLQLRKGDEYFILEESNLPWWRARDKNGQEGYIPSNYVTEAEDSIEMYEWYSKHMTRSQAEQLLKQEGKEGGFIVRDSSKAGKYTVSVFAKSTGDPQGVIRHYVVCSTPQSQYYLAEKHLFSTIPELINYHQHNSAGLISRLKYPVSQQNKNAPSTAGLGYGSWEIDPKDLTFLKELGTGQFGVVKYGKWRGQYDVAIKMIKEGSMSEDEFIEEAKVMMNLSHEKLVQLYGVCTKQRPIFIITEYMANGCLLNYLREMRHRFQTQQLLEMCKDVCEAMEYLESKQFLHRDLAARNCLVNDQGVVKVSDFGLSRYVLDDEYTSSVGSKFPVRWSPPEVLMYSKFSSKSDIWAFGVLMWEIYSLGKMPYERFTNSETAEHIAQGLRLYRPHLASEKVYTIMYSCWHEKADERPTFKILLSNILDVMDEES

[6] = test system: Candida albicans; assay: Agar well diffusion method; settings: for % activity index, C. albicans: relative to clotrimazole; for zone of inhibition at 1000 µg/mL: Candida albicans, 24 h, read-out: Diameter of inhibition zone, C. albicans
[7] = test system: HS578T; assay: NCI single dose (10 µM) SRB screen; assay type: cell-based, human; settings: breast cancer, 48 h
[8] = test system: HCT-116 cells; assay: In vitro cell cycle analysis (DNA flow cytometry); assay type: cell-based, human; settings: HCT-116, 24 h, IC50 concentrations
Experimental: Targeting the cancer cell cycle has been developed as a encouraging approach for cancer therapy.[66]
The cells were centrifuged, frozen in cold 75% ethanol, washed in phosphate buffered saline, resuspended with […] RNase, then stained with […] PI, and analysed with a FACS Calibur (Becton Dickinson, BD, Franklin Lakes, NJ). The cell cycle distributions were determined using Becton Dickinson’s CellQuest software version 5.1.[80]

[9] = test system: BT-549; assay: NCI single dose (10 µM) SRB screen; assay type: cell-based, human; settings: breast cancer, 48 h
[10] = test system: LOX IMVI; assay: NCI single dose (10 µM) SRB screen; assay type: cell-based, human; settings: melanoma, 48 h
[11] = test system: OVCAR-8; assay: NCI single dose (10 µM) SRB screen; assay type: cell-based, human; settings: ovarian cancer, 48 h
[12] = test system: SK-MEL-5; assay: NCI single dose (10 µM) SRB screen; assay type: cell-based, human; settings: melanoma, 48 h
[13] = test system: HCT-116 cells; assay: In vitro cytotoxicity; settings: Homo sapiens, HCT-116, read-out: Cytotoxicity IC50, HCT-116
[14] = test system: HCT-116 cells; assay: Annexin V–FITC apoptosis assay; assay type: cell-based, human; settings: HCT-116, 10 µM, 24 h
From the text: Apoptosis induction is the most important mechanism by chemotherapeutics killing tumour cells.[62]^,[63] Phosphatidylserine (PS) is translocated from the inside to the outside of the plasma membrane during apoptosis, causing cellular alterations. Annexin-V binds to PS and can be employed as a sensitive probe on the plasma membrane’s outer side.[64]^,[65]
PS externalisation was identified using the apoptosis detection kit (Annexin V-FITC/PI) (BD Biosciences) in accordance with the manufacturer’s guidelines.[79]

[15] = test system: HCT-116/ADR cells; assay: cells; settings: Homo sapiens, HCT-116, read-out: Cytotoxicity IC50, HCT-116/ADR
[16] = test system: OVCAR-4; assay: NCI single dose (10 µM) SRB screen; assay type: cell-based, human; settings: ovarian cancer, 48 h
[17] = molecular target: HER-2 (Homo sapiens, UniProt P04626); assay: HER-2 kinase inhibitory activity; assay type: biochemical; settings: for HER-2 Potency: (IC50 lapatinib/IC50 Compound)*100; for IC50: read-out: HER-2 IC50 ± SD
HER-2, sequence (P04626 23-1255): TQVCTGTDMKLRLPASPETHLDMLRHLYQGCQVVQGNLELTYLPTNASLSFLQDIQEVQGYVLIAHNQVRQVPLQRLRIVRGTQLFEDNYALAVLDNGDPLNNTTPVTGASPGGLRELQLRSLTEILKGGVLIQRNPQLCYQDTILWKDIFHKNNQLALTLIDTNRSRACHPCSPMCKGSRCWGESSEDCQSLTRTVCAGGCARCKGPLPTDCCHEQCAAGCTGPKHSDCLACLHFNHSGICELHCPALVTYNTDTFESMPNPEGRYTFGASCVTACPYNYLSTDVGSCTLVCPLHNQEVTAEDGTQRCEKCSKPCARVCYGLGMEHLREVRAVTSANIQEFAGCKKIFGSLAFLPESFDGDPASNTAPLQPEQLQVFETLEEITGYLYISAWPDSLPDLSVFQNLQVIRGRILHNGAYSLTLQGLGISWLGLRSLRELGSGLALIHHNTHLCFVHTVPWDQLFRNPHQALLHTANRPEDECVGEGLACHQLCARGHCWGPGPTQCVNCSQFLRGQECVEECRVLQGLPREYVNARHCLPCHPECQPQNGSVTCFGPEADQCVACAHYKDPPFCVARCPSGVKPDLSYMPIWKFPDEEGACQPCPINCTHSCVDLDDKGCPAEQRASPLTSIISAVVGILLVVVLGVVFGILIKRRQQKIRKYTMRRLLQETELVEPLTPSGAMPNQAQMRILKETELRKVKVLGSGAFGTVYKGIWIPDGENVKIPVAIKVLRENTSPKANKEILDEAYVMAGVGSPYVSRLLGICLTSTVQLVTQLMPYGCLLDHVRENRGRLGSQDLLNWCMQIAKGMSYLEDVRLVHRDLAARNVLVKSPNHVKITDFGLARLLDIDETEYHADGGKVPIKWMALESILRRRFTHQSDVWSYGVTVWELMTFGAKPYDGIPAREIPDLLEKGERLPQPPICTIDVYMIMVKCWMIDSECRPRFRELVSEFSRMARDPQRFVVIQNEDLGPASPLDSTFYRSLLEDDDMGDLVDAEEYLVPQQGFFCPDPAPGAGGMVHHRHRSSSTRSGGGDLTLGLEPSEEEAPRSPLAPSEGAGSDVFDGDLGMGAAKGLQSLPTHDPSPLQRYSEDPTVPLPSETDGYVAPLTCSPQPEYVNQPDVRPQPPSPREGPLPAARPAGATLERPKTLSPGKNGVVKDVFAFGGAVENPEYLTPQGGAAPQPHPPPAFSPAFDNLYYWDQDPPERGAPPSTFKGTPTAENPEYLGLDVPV

[18] = test system: MCF7; assay: NCI single dose (10 µM) SRB screen; assay type: cell-based, human; settings: breast cancer, 48 h
[19] = test system: OVCAR-3; assay: NCI single dose (10 µM) SRB screen; assay type: cell-based, human; settings: ovarian cancer, 48 h
[20] = test system: Aspergillus flavus; assay: Agar well diffusion method; settings: for zone of inhibition at 1000 µg/mL: Aspergillus flavus, 24 h, read-out: Diameter of inhibition zone, A. flavus; for % activity index, A. flavus: relative to clotrimazole
[21] = test system: NCI 60 cancer cell lines; assay: NCI single dose (10 µM) SRB screen, mean over panel; assay type: cell-based, human; settings: mean over 60 cell lines, 48 h
[22] = test system: SW-620; assay: NCI single dose (10 µM) SRB screen; assay type: cell-based, human; settings: colon cancer, 48 h
[23] = test system: P. aeruginosa; assay: MIC, two-fold microbroth dilution method; settings: Pseudomonas aeruginosa, read-out: MIC (µg/mL) P. aeruginosa
[24] = test system: A. flavus; assay: MIC, two-fold microbroth dilution method; settings: Aspergillus flavus, read-out: MIC (µg/mL) A. flavus
[25] = test system: B. subtilis; assay: MIC, two-fold microbroth dilution method; settings: Bacillus subtilis, read-out: MIC (µg/mL) B. subtilis
[26] = test system: S. aureus; assay: MIC, two-fold microbroth dilution method; settings: Staphylococcus aureus, read-out: MIC (µg/mL) S. aureus
[27] = test system: E. coli; assay: MIC, two-fold microbroth dilution method; settings: Escherichia coli, read-out: MIC (µg/mL) E. coli
[28] = test system: C. albicans; assay: MIC, two-fold microbroth dilution method; settings: Candida albicans, read-out: MIC (µg/mL) C. albicans

SMILES | MIC [23] [µg/mL] | MIC [24] [µg/mL] | MIC [25] [µg/mL] | MIC [26] [µg/mL] | GI% NCI-H226 [1] | GI% RXF 393 [3] | % activity index, C. albicans [6] | GI% HS578T [7] | GI% BT-549 [9] | GI% LOX IMVI [10] | GI% OVCAR-8 [11] | GI% SK-MEL-5 [12] | GI% OVCAR-4 [16] | GI% MCF7 [18] | GI% OVCAR-3 [19] | zone of inhibition at 1000 µg/mL [20] [mm] | % activity index, A. flavus [20] | Mean GI% [21] [%] | GI% SW-620 [22] | zone of inhibition at 1000 µg/mL [6] [mm] | other results
COC(=O)C1=C(C)NC(C)=C(C(=O)OCc2ccccc2)C1c1cccc(C#N)c1 (racemic) [Compound 2e, (±)-3-Benzyl 5-methyl 4-(3-cyanophenyl)-2,6-dimethyl-1,4-dihydropyridine-3,5-dicarboxylate] |  |  |  |  | 31% | 14% | – (Values below 25 are of limited value and not shown as they refer either to inactive or non-diffusing compounds) | 28% | – (Only GI% ≥ 10 are shown) | 61% | 34% | 37% | – (Only GI% ≥ 10 are shown) | 29% | – (Only GI% ≥ 10 are shown) | 10 | 40% | 28 | 45% |  | RF (reversal fold activity) [2]: 7.68; EGFR Potency [4]: 67.68%; IC50 [4]: 0.0804 ± 0.00126 µM; BTK Potency [5]: 74.91%; IC50 [5]: 0.0821 ± 0.0014 µM; %G0-G1 [8]: 39.17–43.25%; %G2-M [8]: 26.03–31.84%; %Pre-G1 [8]: 15.57–19.36%; IC50 [13]: 1.27 ± 0.42 µM; early apoptosis ratio (lower-right quadrant) [14]: 4.37–6.17%; late apoptosis ratio (upper-right quadrant) [14]: 9.45–11.28%; IC50 [15]: 29.4 ± 0.45 µM; HER-2 Potency [17]: 95.13%; IC50 [17]: 0.0765 ± 0.00087 µM
CCOC(=O)C1=C(C)NC(C)=C(C(=O)OC(C)(C)C)C1c1cccc(C#N)c1 (racemic) [Compound 2j, (±)-3-Tert-butyl 5-ethyl 4-(3-cyanophenyl)-2,6-dimethyl-1,4-dihydropyridine-3,5-dicarboxylate] | 4 (≈ 10.5 µM) | 8 (≈ 20.9 µM) | 4 (≈ 10.5 µM) | 8 (≈ 20.9 µM) | – (Only GI% ≥ 10 are shown) | – (Only GI% ≥ 10 are shown) | 70% and 70.4% | – (Only GI% ≥ 10 are shown) | – (Only GI% ≥ 10 are shown) | – (Only GI% ≥ 10 are shown) | – (Only GI% ≥ 10 are shown) | – (Only GI% ≥ 10 are shown) | – (Only GI% ≥ 10 are shown) | – (Only GI% ≥ 10 are shown) | – (Only GI% ≥ 10 are shown) | 20 | 80% | 4 | – (Only GI% ≥ 10 are shown) | 19 | melting point: 152 to 153 °C; MIC [27]: 1 µg/mL (≈ 2.61 µM); MIC [28]: 16 µg/mL (≈ 41.8 µM)
CCOC(=O)C1=C(C)NC(C)=C(C(=O)OCc2ccccc2)C1c1cccc(C#N)c1 (racemic) [Compound 2l, (±)-3- Benzyl 5-ethyl 4-(3-cyanophenyl)-2,6-dimethyl-1,4-dihydropyridine-3,5-dicarboxylate] |  |  |  |  | 41% | 55% | – (Values below 25 are of limited value and not shown as they refer either to inactive or non-diffusing compounds) | 59% | 68% | 64% | 51% | 45% | 28% | 78% | 76% |  | – (Values below 25 are of limited value and not shown as they refer either to inactive or non-diffusing compounds) | 64 | 70% |  | RF (reversal fold activity) [2]: 10.05; EGFR Potency [4]: 72.29%; IC50 [4]: 0.0752 ± 0.00095 µM; BTK Potency [5]: 96.35%; IC50 [5]: 0.0638 ± 0.00055 µM; %G0-G1 [8]: 39.17–43.25%; %G2-M [8]: 26.03–31.84%; %Pre-G1 [8]: 15.57–19.36%; IC50 [13]: 1.11 ± 0.45 µM; early apoptosis ratio (lower-right quadrant) [14]: 4.37–6.17%; late apoptosis ratio (upper-right quadrant) [14]: 9.45–11.28%; IC50 [15]: 15.83 ± 0.13 µM; HER-2 Potency [17]: 89.10%; IC50 [17]: 0.0817 ± 0.00092 µM

Further lines, with some results ahead:

MIC [23] [µg/mL] | MIC [24] [µg/mL] | MIC [25] [µg/mL] | MIC [26] [µg/mL] | SMILES | GI% NCI-H226 [1] | GI% RXF 393 [3] | % activity index, C. albicans [6] | GI% HS578T [7] | GI% BT-549 [9] | GI% LOX IMVI [10] | GI% OVCAR-8 [11] | GI% SK-MEL-5 [12] | GI% OVCAR-4 [16] | GI% MCF7 [18] | GI% OVCAR-3 [19] | zone of inhibition at 1000 µg/mL [20] [mm] | % activity index, A. flavus [20] | Mean GI% [21] [%] | GI% SW-620 [22] | zone of inhibition at 1000 µg/mL [6] [mm] | other results
8 (≈ 20.8 µM) | 32 (≈ 83.2 µM) | 8 (≈ 20.8 µM) | 16 (≈ 41.6 µM) | CCOC(=O)C1=C(C)NC(C)=C(C(=O)OCCOC)C1c1cccc(C#N)c1 (racemic) [Compound 2k, (±)-3-Ethyl 5-(2-methoxyethyl) 4-(3-cyanophenyl)-2,6-dimethyl-1,4-dihydropyridine-3,5-dicarboxylate] | – (Only GI% ≥ 10 are shown) | – (Only GI% ≥ 10 are shown) | 59.2% | – (Only GI% ≥ 10 are shown) | – (Only GI% ≥ 10 are shown) | – (Only GI% ≥ 10 are shown) | – (Only GI% ≥ 10 are shown) | – (Only GI% ≥ 10 are shown) | – (Only GI% ≥ 10 are shown) | – (Only GI% ≥ 10 are shown) | – (Only GI% ≥ 10 are shown) | 18 | 72% | −1 | – (Only GI% ≥ 10 are shown) | 16 | melting point: 133 to 134 °C; MIC [27]: 4 µg/mL (≈ 10.4 µM); MIC [28]: 32 µg/mL (≈ 83.2 µM)
16 (≈ 38.6 µM) | 16 (≈ 38.6 µM) | 2 (≈ 4.83 µM) | 4 (≈ 9.65 µM) | COCCOC(=O)C1=C(C)NC(C)=C(C(=O)OCCOC)C1c1cccc(C#N)c1 [Compound 1f, Di(2-methoxyethyl) 4-(3-cyanophenyl)-2,6-dimethyl-1,4-dihydropyridine-3,5-dicarboxylate] | – (Only GI% ≥ 10 are shown) | – (Only GI% ≥ 10 are shown) | 66.7% | – (Only GI% ≥ 10 are shown) | 12% | – (Only GI% ≥ 10 are shown) | – (Only GI% ≥ 10 are shown) | – (Only GI% ≥ 10 are shown) | – (Only GI% ≥ 10 are shown) | – (Only GI% ≥ 10 are shown) | – (Only GI% ≥ 10 are shown) | 19 | 76% | −1 | – (Only GI% ≥ 10 are shown) | 18 | melting point: 125 to 126 °C; MIC [27]: 8 µg/mL (≈ 19.3 µM); MIC [28]: 16 µg/mL (≈ 38.6 µM)
